Measurements reported in PubChem BioAssay (NCI).
Several values for one entry are separate records, joined by “and”; a condition that tells them apart may be missing. Identical values can stand only once.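 Grown in 96-well plates, cells were treated for 48 hours with each compound at five concentrations. Insufficient inhibition: endpoint recorded as highest concentration tested. Abbreviation: GI50, concentration required for 50% inhibition of growth. The concentration for full growth arrest is given as TGI.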

Experiments:
Assay in all cases: NCI anticancer screen, dose series, 48 h
[1] = system: HCT-15 colon
[2] = system: MALME-3M melanoma
[3] = system: MDA-MB-231 breast
[4] = system: MDA-MB-435
[5] = system: PC-3 prostate
[6] = system: SK-MEL-5 melanoma
[7] = system: U251 CNS
[8] = system: UACC-62 melanoma
[9] = system: UO-31 renal
[10] = system: OVCAR-8 ovarian

`COc1ccc(-c2cc(=O)c3c(O)cc(C)cc3o2)cc1OC` gave a TGI [1] greater than 100 µM, a TGI [2] greater than 100 µM and a TGI [3] greater than 100 µM. It also gave a TGI [4] greater than 100 µM, a TGI [5] greater than 100 µM and a TGI [6] greater than 100 µM. The TGI [7] was greater than 100 µM, the TGI [8] was greater than 100 µM and the TGI [9] was greater than 100 µM.

With `O=C(NO)C(=O)Nc1ccc(Cl)cc1[N+](=O)[O-]` the TGI [1] was greater than 100 µM, the TGI [2] was greater than 100 µM and the TGI [10] was greater than 100 µM. The TGI [6] was greater than 100 µM, the TGI [7] was greater than 100 µM and the TGI [8] was greater than 100 µM. It also gave a TGI [9] greater than 100 µM.

For `CCC(C(=O)[O-])C(=O)[O-].CCC(C(=O)[O-])C(=O)[O-].N.N.NCCCCCCN.[Pt+4].[Pt+4]`, the GI50 [1] was 5 µM, the TGI [1] was 13.8 µM and the GI50 [2] was 1 µM. It also gave a TGI [2] of 1.9 µM, a GI50 [10] of 11.5 µM and a TGI [10] of 28.1 µM. The GI50 [6] was 3.35 µM, the TGI [6] was 9.46 µM and the GI50 [7] was 8.8 µM. The TGI [7] was 16.5 µM, the GI50 [8] was 7.5 µM and the TGI [8] was 14.6 µM. The GI50 [9] was 7.06 µM and the TGI [9] was 13.6 µM.

Compound `COc1ccc(-c2ccc(/C=N/n3c(C)nn(CN4CCN(C)CC4)c3=S)o2)c([N+](=O)[O-])c1` has a GI50 [1] of 28.7 µM, a TGI [1] greater than 100 µM and a GI50 [2] of 44.6 µM. It also gave a TGI [2] greater than 100 µM, a GI50 [4] of 14.2 µM and a TGI [4] of 31 µM. For the same compound, the GI50 [5] was 24.9 µM, the TGI [5] was 92 µM and the GI50 [8] was 55.4 µM. The TGI [8] was greater than 100 µM, the GI50 [9] was greater than 100 µM and the TGI [9] was greater than 100 µM.

In the case of `CC1=C(c2cc(C(=O)Nc3cccc(C(F)(F)F)c3)ncn2)Sc2ccccc2N1`, the TGI [1] was greater than 100 µM, the TGI [2] was greater than 100 µM and the TGI [10] was greater than 100 µM. The TGI [6] was greater than 100 µM, the TGI [7] was greater than 100 µM and the TGI [8] was greater than 100 µM. The TGI [9] was greater than 100 µM.

In the case of `OC(c1ccccn1)C1CNc2ccccc21` (stereo not given), the TGI [1] was greater than 100 µM, the TGI [2] was greater than 100 µM and the TGI [10] was greater than 100 µM. For the same compound, the TGI [6] was greater than 100 µM, the TGI [7] was greater than 100 µM and the TGI [8] was greater than 100 µM. It also gave a TGI [9] greater than 100 µM.

With `COc1ccc(-c2c(-c3cc(OC)c4c(c3)OCO4)noc2N)cc1` the GI50 [1] was 0.0431 µM, the TGI [1] was greater than 100 µM and the GI50 [3] was 0.181 µM. It also gave a TGI [3] of 16.9 µM, a TGI [4] of 0.0251 µM and a GI50 [10] of 0.0654 µM. It also gave a TGI [10] of 22.8 µM, a GI50 [5] of 0.0436 µM and a TGI [5] of 60.1 µM. For the same compound, the GI50 [6] was 0.0288 µM, the TGI [6] was 0.485 µM and the GI50 [7] was 0.0382 µM. The TGI [7] was 42.7 µM, the GI50 [8] was 0.05 µM and the TGI [8] was 20.7 µM. It also gave a GI50 [9] of 0.463 µM and a TGI [9] of 35.5 µM.

With `Cc1nc(Nc2ccc([N+](=O)[O-])cc2)sc1C(/C=C/c1ccc(N(C)C)cc1)=N/NC(=O)c1ccccc1` the TGI [1] was greater than 100 µM, the TGI [2] was greater than 100 µM and the TGI [10] was greater than 100 µM. For the same compound, the TGI [7] was greater than 100 µM, the TGI [8] was 28.5 µM and the TGI [9] was greater than 100 µM.

Work on `c1ccc(COCC2OC3c4ccccc4COC3C2OCc2ccccc2)cc1` (stereo not given) yielded a TGI [1] greater than 100 µM, a TGI [2] greater than 100 µM and a TGI [10] greater than 100 µM. For the same compound, the TGI [6] was greater than 100 µM, the TGI [7] was greater than 100 µM and the TGI [8] was greater than 100 µM. It also gave a TGI [9] greater than 100 µM.

`CC(=O)NNc1nc(C)c(C(/C=C/c2ccc(Cl)cc2)=N/NC(=O)C[N+](C)(C)C)s1` was tested, and the TGI [1] was greater than 100 µM, the TGI [2] was greater than 100 µM and the TGI [6] was greater than 100 µM. For the same compound, the TGI [8] was greater than 100 µM and the TGI [9] was greater than 100 µM.

In the case of `COC(=O)C(Cc1nc2ccc(Cl)cc2[nH]c1=O)/C(=N/NC(N)=O)C(=O)Nc1ccc(Cl)cc1` (stereo not given), the TGI [1] was greater than 100 µM, the TGI [2] was greater than 100 µM and the TGI [10] was greater than 100 µM. For the same compound, the TGI [6] was greater than 100 µM, the TGI [7] was greater than 100 µM and the TGI [8] was greater than 100 µM. The TGI [9] was greater than 100 µM.

In the case of `N#CC1(C=O)c2ccccc2C=CN1C(=O)c1ccccc1` (stereo not given), the TGI [1] was greater than 100 µM, the TGI [2] was greater than 100 µM and the TGI [10] was greater than 100 µM. It also gave a TGI [6] of 47.3 µM, a TGI [7] greater than 100 µM and a TGI [8] greater than 100 µM. The TGI [9] was greater than 100 µM.

With `Cn1c2c(c3ccccc31)CCN(CCCCN1CCN(c3cccc(Cl)c3)CC1)C2=O` the TGI [1] was 29.7 µM, the TGI [10] was 48 µM and the TGI [6] was 21.8 µM. The TGI [7] was 24.6 µM, the TGI [8] was 23.6 µM and the TGI [9] was 22.4 µM.

`N#Cc1ccc(C(c2ccc(C#N)cc2)n2cncn2)cc1` showed a GI50 [1] greater than 5000 µM, a TGI [1] greater than 5000 µM and a GI50 [2] greater than 5000 µM. It also gave a TGI [2] greater than 5000 µM, a GI50 [4] greater than 5000 µM and a TGI [4] greater than 5000 µM. It also gave a TGI [10] greater than 5000 µM, a GI50 [5] greater than 5000 µM and a TGI [5] greater than 5000 µM. It also gave a GI50 [6] of 3.33 µM, a TGI [6] greater than 5000 µM and a GI50 [7] of 2850 µM. The TGI [7] was greater than 5000 µM, the GI50 [8] was 51.5 µM and the GI50 [9] was 60.8 µM and 119 µM. The TGI [9] was greater than 5000 µM.

Work on `O=C([O-])c1ccc(C(=O)[O-])cc1.O=C([O-])c1ccc(C(=O)[O-])cc1.[Mo+2].[Mo+2]` yielded a GI50 [1] greater than 100 µM, a TGI [1] greater than 100 µM and a GI50 [2] greater than 100 µM. For the same compound, the TGI [2] was greater than 100 µM, the GI50 [10] was greater than 100 µM and the TGI [10] was greater than 100 µM. It also gave a GI50 [6] greater than 100 µM, a TGI [6] greater than 100 µM and a GI50 [7] greater than 100 µM. For the same compound, the TGI [7] was greater than 100 µM, the GI50 [8] was greater than 100 µM and the TGI [8] was greater than 100 µM. The GI50 [9] was greater than 100 µM and the TGI [9] was greater than 100 µM.

In the case of `CNCCCNc1nc2ccccc2c2c(=O)c3cc(Cl)ccc3sc12`, the GI50 [1] was 1.5 µM, the TGI [1] was 2.92 µM and the GI50 [2] was 1.87 µM. It also gave a TGI [2] of 3.62 µM, a GI50 [3] of 1.33 µM and a TGI [3] of 2.67 µM. The GI50 [4] was 1.76 µM, the TGI [4] was 3.19 µM and the GI50 [5] was 1.52 µM. It also gave a TGI [5] of 3.02 µM, a GI50 [6] of 2.13 µM and a TGI [6] of 5.25 µM. The GI50 [8] was 1.62 µM, the TGI [8] was 3.04 µM and the GI50 [9] was 1.16 µM. For the same compound, the TGI [9] was 2.42 µM.

`CCOC(=O)NC(=O)c1cn(CCN2CCN(C(=O)CCCCCCCCCCNc3ncnc4nc[nH]c34)CC2)c(=O)[nH]c1=O` showed a TGI [1] greater than 100 µM, a TGI [2] greater than 100 µM and a TGI [10] greater than 100 µM. It also gave a TGI [6] greater than 100 µM, a TGI [7] greater than 100 µM and a TGI [8] greater than 100 µM. For the same compound, the TGI [9] was greater than 100 µM.

In the case of `CCCCC#CC#Cc1cccc(=O)o1`, the GI50 [1] was 20.2 µM, the TGI [1] was 39.5 µM and the GI50 [2] was 14.1 µM. The TGI [2] was 27.6 µM, the GI50 [3] was 19.5 µM and the TGI [3] was 43.2 µM. The GI50 [4] was 22 µM, the TGI [4] was 48.6 µM and the GI50 [10] was 26.4 µM. The TGI [10] was 62.9 µM, the GI50 [5] was 31 µM and the TGI [5] was greater than 100 µM. It also gave a GI50 [7] of 24.6 µM, a TGI [7] of 72.7 µM and a GI50 [8] of 16.1 µM. For the same compound, the TGI [8] was 32.8 µM, the GI50 [9] was 21.9 µM and the TGI [9] was 46.2 µM.

For `O=C(Oc1ccccc1Cl)c1ccccc1Nc1ccnc(C(F)(F)F)c1`, the GI50 [1] was 0.219 µM, the TGI [1] was 0.538 µM and the GI50 [3] was 0.202 µM. The TGI [3] was 0.502 µM, the GI50 [4] was 0.107 µM and the TGI [4] was 0.297 µM. The GI50 [10] was 0.366 µM, the TGI [10] was 14.3 µM and the GI50 [5] was 0.306 µM. For the same compound, the TGI [5] was 3.55 µM, the GI50 [6] was 0.264 µM and the TGI [6] was 0.545 µM. For the same compound, the GI50 [7] was 0.271 µM, the TGI [7] was 0.808 µM and the GI50 [8] was 0.165 µM. For the same compound, the TGI [8] was 2.05 µM, the GI50 [9] was 9.63 µM and the TGI [9] was greater than 57.9 µM.
